How the values were obtained:
[1] = target: T1, human ENPP1 (Homo sapiens, UniProt P22413); assay: ENPP1 assay with ATP substrate (Transcreener AMP2/GMP2 TR-FRET); format: biochemical; conditions: 1 hour at room temperature
T1 construct: made in house
T1 sequence (P22413 1-925): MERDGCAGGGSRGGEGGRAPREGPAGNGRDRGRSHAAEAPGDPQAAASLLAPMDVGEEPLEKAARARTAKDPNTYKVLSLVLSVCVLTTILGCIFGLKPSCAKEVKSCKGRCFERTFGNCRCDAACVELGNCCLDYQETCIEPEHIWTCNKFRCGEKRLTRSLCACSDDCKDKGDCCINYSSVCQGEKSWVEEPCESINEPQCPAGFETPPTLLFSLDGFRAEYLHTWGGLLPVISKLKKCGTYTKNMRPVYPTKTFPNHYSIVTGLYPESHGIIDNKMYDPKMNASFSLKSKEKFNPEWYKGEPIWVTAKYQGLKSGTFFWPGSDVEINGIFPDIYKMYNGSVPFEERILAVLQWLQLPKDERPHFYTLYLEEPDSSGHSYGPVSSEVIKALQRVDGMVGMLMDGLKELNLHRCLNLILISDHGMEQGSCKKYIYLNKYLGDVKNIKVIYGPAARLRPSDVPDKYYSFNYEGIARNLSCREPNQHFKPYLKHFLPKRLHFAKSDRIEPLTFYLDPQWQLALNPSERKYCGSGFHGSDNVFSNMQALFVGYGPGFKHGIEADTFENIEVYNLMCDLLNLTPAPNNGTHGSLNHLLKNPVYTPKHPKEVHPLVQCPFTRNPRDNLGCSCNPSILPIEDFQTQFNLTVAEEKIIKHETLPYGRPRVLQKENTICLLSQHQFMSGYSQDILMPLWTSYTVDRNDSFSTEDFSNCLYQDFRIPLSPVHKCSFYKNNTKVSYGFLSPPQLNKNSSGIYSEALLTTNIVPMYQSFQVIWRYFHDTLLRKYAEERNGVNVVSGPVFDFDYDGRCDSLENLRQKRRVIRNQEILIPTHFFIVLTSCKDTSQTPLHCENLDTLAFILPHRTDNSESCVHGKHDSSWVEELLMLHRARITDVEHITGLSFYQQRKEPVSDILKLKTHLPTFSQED
Outline: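 Reaction ran 1 h at room temperature in pH 7.5 Tris with MgCl2, TCEP, Tween 20 and 1% DMSO. ATP was added as a 300 nM stock and enzyme as an 8.5 μM stock. After EDTA stop, AMP was read by TR-FRET tracer displacement. Percent inhibition used enzyme/no-enzyme controls; IC50 was fitted with a variable slope.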

[2] = target: T2, ENPP3 (Homo sapiens, UniProt O14638); assay: ENPP3 Km ATP assay; format: biochemical; conditions: ATP at Km
T2 sequence (O14638 1-875): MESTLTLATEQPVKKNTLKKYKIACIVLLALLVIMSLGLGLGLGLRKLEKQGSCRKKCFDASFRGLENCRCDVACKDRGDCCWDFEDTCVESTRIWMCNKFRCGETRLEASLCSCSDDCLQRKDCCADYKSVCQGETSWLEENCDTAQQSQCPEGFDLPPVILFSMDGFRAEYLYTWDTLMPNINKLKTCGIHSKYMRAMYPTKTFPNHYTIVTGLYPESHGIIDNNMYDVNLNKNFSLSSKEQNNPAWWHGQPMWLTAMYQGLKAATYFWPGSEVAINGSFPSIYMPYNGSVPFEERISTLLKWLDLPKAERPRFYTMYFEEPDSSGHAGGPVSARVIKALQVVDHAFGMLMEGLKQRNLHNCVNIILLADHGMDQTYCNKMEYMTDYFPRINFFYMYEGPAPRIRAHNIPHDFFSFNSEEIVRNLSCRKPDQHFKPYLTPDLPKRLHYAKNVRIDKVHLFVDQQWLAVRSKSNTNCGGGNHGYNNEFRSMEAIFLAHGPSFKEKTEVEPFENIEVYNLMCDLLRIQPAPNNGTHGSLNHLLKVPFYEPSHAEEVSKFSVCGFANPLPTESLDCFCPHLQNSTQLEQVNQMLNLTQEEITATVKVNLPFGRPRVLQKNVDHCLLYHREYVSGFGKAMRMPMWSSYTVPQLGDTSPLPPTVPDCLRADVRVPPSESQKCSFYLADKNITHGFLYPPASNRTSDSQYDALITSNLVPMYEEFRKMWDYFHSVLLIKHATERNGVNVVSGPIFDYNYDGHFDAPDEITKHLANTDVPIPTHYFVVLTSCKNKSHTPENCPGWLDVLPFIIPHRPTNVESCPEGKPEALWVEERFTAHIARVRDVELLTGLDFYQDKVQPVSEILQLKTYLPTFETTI

Compound | IC50 [1] [µM] | IC50 [2] [µM]
COCCN(C)c1nc(NCc2ccc(S(N)(=O)=O)cc2)c2c(-c3ccccc3)csc2n1 [Example 1.55, 4-((2-(N-Methyl-N-(2-methoxyethyl)amino)-5-phenylthieno[2,3-d]pyrimidin-4-yl)aminomethyl)benzenesulfonamide] | < 0.1 | 0.1 to 1
COCCCNc1nc(NCc2ccc(S(N)(=O)=O)cc2)c2c(-c3ccccc3)csc2n1 [Example 1.56, 4-((2-(3-Methoxypropyl)amino-5-phenylthieno[2,3-d]pyrimidin-4-yl)aminomethyl)-benzenesulfonamide] | < 0.1 | < 0.1
Nc1nc(NCc2ccc(S(N)(=O)=O)cc2)c2c(-c3ccccc3)csc2n1 [Example 1.57, 4-((2-Amino-5-phenylthieno[2,3-d]pyrimidin-4-yl)aminomethyl)benzenesulfonamide] | < 0.1 | 0.1 to 1
CN(C)CCN(C)c1nc(NCc2ccc(S(N)(=O)=O)cc2)c2c(-c3ccccc3)csc2n1 [Example 1.58, 4-((2-((N-2-(Dimethylamino)ethyl)-N-methylamino)-5-phenylthieno[2,3-d]pyrimidin-4-yl)aminomethyl)benzenesulfonamide] | < 0.1 | < 0.1
CN(C)CCCNc1nc(NCc2ccc(S(N)(=O)=O)cc2)c2c(-c3ccccc3)csc2n1 [Example 1.59, 4-((2-(3-Dimethylaminopropyl)amino-5-phenylthieno[2,3-d]pyrimidin-4-yl)aminomethyl)-benzenesulfonamide] | < 0.1 | < 0.1
CN(C)CCNc1nc(NCc2ccc(S(N)(=O)=O)cc2)c2c(-c3ccccc3)csc2n1 [Example 1.60, 4-((2-(2-Dimethylamino)ethylamino-5-phenylthieno[2,3-d]pyrimidin-4-yl)aminomethyl)-benzenesulfonamide] | < 0.1 | < 0.1
Cc1nc(NCc2ccc(S(N)(=O)=O)cc2)c2c3c(sc2n1)CCCC3 [Example 1.64, 4-((2-Methyl-5,6,7,8-tetrahydro[1]benzothieno[2,3-d]pyrimidin-4-yl)aminomethyl)-benzenesulfonamide] | > 20 | 1 to 20
CC(Nc1ncnc2scc(-c3ccccc3)c12)c1ccc(S(N)(=O)=O)cc1 (stereo not shown) [Example 1.65, 4-(1-(5-Phenylthieno[2,3-d]pyrimidin-4-yl)aminoethyl)benzenesulfonamide] | 1 to 20 | 1 to 20
NS(=O)(=O)N1CCC(CNc2ncnc3scc(-c4ccccc4)c23)CC1 [Example 1.66, 4-(5-Phenylthieno[2,3-d]pyrimidin-4-yl)aminomethyl-1-piperidinesulfonamide] | 0.1 to 1 | 1 to 20
NS(=O)(=O)N1CCC(CNc2nc(-c3ccccn3)nc3scc(-c4ccccc4)c23)CC1 [Example 1.67, 4-((5-Phenyl-2-(2-pyridyl)thieno[2,3-d]pyrimidin-4-yl)aminomethyl)-1-piperidinesulfonamide] | 0.1 to 1 | 1 to 20
NS(=O)(=O)c1ccc(CNc2ncnc3scc(C4=CCCCC4)c23)cc1 [Example 1.69, 4-((5-(1-Cyclohexenyl)thieno[2,3-d]pyrimidin-4-yl)aminomethyl)benzenesulfonamide] | > 20 | 0.1 to 1
NS(=O)(=O)c1ccc(COc2ncnc3scc(-c4ccccc4)c23)cc1 [Example 1.70, 4-((5-Phenylthieno[2,3-d]pyrimidin-4-yl)oxymethyl)benzenesulfonamide] | 0.1 to 1 | 1 to 20
Cn1ncc2c(NCc3ccc(S(N)(=O)=O)c(F)c3)ncnc21 [Example 2.1, 2-Fluoro-4-(((1-methyl-1H-pyrazolo[3,4-d]pyrimidin-4-yl)amino)methyl)-benzenesulfonamide] | < 0.1 | 1 to 20
Cc1cc(S(N)(=O)=O)ccc1CNc1ncnc2c1cnn2C [Example 2.2, 3-Methyl-4-(((1-methyl-1H-pyrazolo[3,4-d]pyrimidin-4-yl)amino)methyl)-benzenesulfonamide] | 0.1 to 1 | 1 to 20
